# Laboratory results taken from patent US6737383B1, “Herbicidal oxadiazolidines” (priority 1999, dated 2004).
# Legend:
# bedstraw = experiment: Test B pre/postemergence bedstraw; type: in vivo, Galium aparine; conditions: Preemergence
# How it was run: (§1)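 Response is a visual 0-to-10 score relative to untreated plants, where 0 means no effect and 10 means complete control, taken twelve to sixteen days after application. Treatments went onto soil at planting and onto foliage of 1- to 4-leaf plants, using a surfactant-containing non-phytotoxic solvent.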
# blackgrass = experiment: Test B pre/postemergence blackgrass; type: in vivo, Alopecurus myosuroides
# How it was run: as §1
# surinam grass = experiment: Test B pre/postemergence surinam grass; type: in vivo, Brachiaria decumbens
# How it was run: as §1
# cocklebur = experiment: Test B pre/postemergence cocklebur; type: in vivo, Xanthium strumarium
# How it was run: as §1
# corn = experiment: Test B pre/postemergence corn; type: in vivo, Zea mays
# How it was run: as §1
# crabgrass = experiment: Test B pre/postemergence crabgrass; type: in vivo, Digitaria sanguinalis
# How it was run: as §1
# giant foxtail = experiment: Test B pre/postemergence giant foxtail; type: in vivo, Setaria faberii
# How it was run: as §1
# morningglory = experiment: Test B pre/postemergence morningglory; type: in vivo, Ipomoea hederacea
# How it was run: as §1
# pigweed = experiment: Test B pre/postemergence pigweed; type: in vivo, Amaranthus retroflexus
# How it was run: as §1
# rape = experiment: Test B pre/postemergence rape; type: in vivo, Brassica napus
# How it was run: as §1
# soybean = experiment: Test B pre/postemergence soybean; type: in vivo, Glycine max
# How it was run: as §1
# sugar beet = experiment: Test B pre/postemergence sugar beet; type: in vivo, Beta vulgaris
# How it was run: as §1
# velvetleaf = experiment: Test B pre/postemergence velvetleaf; type: in vivo, Abutilon theophrasti
# How it was run: as §1
# wheat = experiment: Test B pre/postemergence wheat; type: in vivo, Triticum aestivum
# How it was run: as §1
# wild oat = experiment: Test B pre/postemergence wild oat; type: in vivo, Avena fatua
# How it was run: as §1
# purple nutsedge = experiment: Test B pre/postemergence purple nutsedge; type: in vivo, Cyperus rotundus
# How it was run: as §1
# [1] = Postemergence, Rate 62 g/ha, scale 0 to 10, 0 is no effect, 10 is complete control
# [2] = Postemergence, Rate 125 g/ha, scale of 0 to 10 where 0 is no effect and 10 is complete control
# [3] = Postemergence, Rate 250 g/ha, scale of 0 to 10, 0 is no effect, 10 is complete control
# [4] = Preemergence, Rate 62 g/ha, scale of 0 to 10 where 0 is no effect and 10 is complete control
# [5] = Preemergence, Rate 125 g/ha, scale of 0 to 10 where 0 is no effect and 10 is complete control
# [6] = Preemergence, Rate 250 g/ha, scale 0 to 10 (0 no effect, 10 complete control)
# [7] = Preemergence, Rate 500 g/ha, scale of 0 to 10 where 0 is no effect and 10 is complete control
# [8] = Rate 500 g/ha, Postemergence, scale 0 to 10, 0 is no effect, 10 is complete control
smiles,measurement,setting,value
CC(C)N(C(=O)n1oc(=O)n(Cc2nnc(Cl)s2)c1=O)c1ccc(Cl)cc1 [Compound 653],Bedstraw plant response rating,"bedstraw; Rate 62 g/ha, scale of 0 to 10 where 0 is no effect and 10 is complete control",0
same,Bedstraw plant response rating,"bedstraw; Rate 125 g/ha, scale of 0 to 10 where 0 is no effect and 10 is complete control",0
same,"Plant response rating, Bedstraw","bedstraw; Rate 250 g/ha, scale 0 to 10 (0 no effect, 10 complete control)",0
same,"Plant response rating, Bedstraw","bedstraw; Rate 500 g/ha, scale of 0 to 10 where 0 is no effect and 10 is complete control",0
same,"Plant response rating, Blackgrass",blackgrass; [1],0
same,Blackgrass plant response rating,blackgrass; [2],0
same,Blackgrass plant response rating,blackgrass; [3],0
same,Blackgrass plant response rating,blackgrass; [4],0
same,Blackgrass plant response rating,blackgrass; [5],0
same,"Plant response rating, Blackgrass",blackgrass; [6],0
same,"Plant response rating, Blackgrass",blackgrass; [7],0
same,Blackgrass plant response rating,blackgrass; [8],0
same,"Plant response rating, B. signalgrass",surinam grass; [1],0
same,"Plant response rating, B. signalgrass",surinam grass; [2],0
same,B. signalgrass plant response rating,surinam grass; [3],0
same,B. signalgrass plant response rating,surinam grass; [4],0
same,B. signalgrass plant response rating,surinam grass; [5],0
same,"Plant response rating, B. signalgrass",surinam grass; [6],0
same,"Plant response rating, B. signalgrass",surinam grass; [7],0
same,B. signalgrass plant response rating,surinam grass; [8],2
same,"Plant response rating, Cocklebur",cocklebur; [1],0
same,Cocklebur plant response rating,cocklebur; [2],0
same,Cocklebur plant response rating,cocklebur; [3],0
same,Cocklebur plant response rating,cocklebur; [4],0
same,"Plant response rating, Cocklebur",cocklebur; [6],0
same,"Plant response rating, Cocklebur",cocklebur; [7],0
same,Cocklebur plant response rating,cocklebur; [8],0
same,"Plant response rating, Corn",corn; [1],0
same,Corn plant response rating,corn; [2],0
same,Corn plant response rating,corn; [3],0
same,Corn plant response rating,corn; [4],0
same,Corn plant response rating,corn; [5],0
same,"Plant response rating, Corn",corn; [6],0
same,"Plant response rating, Corn",corn; [7],0
same,Corn plant response rating,corn; [8],0
same,"Plant response rating, Crabgrass",crabgrass; [1],0
same,Crabgrass plant response rating,crabgrass; [2],0
same,Crabgrass plant response rating,crabgrass; [3],0
same,Crabgrass plant response rating,crabgrass; [4],0
same,Crabgrass plant response rating,crabgrass; [5],2
same,"Plant response rating, Crabgrass",crabgrass; [6],6
same,"Plant response rating, Crabgrass",crabgrass; [7],8
same,Crabgrass plant response rating,crabgrass; [8],2
same,"Plant response rating, Giant foxtail",giant foxtail; [1],0
same,Giant foxtail plant response rating,giant foxtail; [2],0
same,Giant foxtail plant response rating,giant foxtail; [3],2
same,Giant foxtail plant response rating,giant foxtail; [4],0
same,Giant foxtail plant response rating,giant foxtail; [5],0
same,"Plant response rating, Giant foxtail",giant foxtail; [6],2
same,"Plant response rating, Giant foxtail",giant foxtail; [7],8
same,Giant foxtail plant response rating,giant foxtail; [8],7
same,"Plant response rating, Morningglory",morningglory; [1],0
same,Morningglory plant response rating,morningglory; [2],1
same,Morningglory plant response rating,morningglory; [3],1
same,Morningglory plant response rating,morningglory; [4],0
same,Morningglory plant response rating,morningglory; [5],0
same,"Plant response rating, Morningglory",morningglory; [6],0
same,"Plant response rating, Morningglory",morningglory; [7],0
same,Morningglory plant response rating,morningglory; [8],1
same,"Plant response rating, Redroot pigweed",pigweed; [1],0
same,Redroot pigweed plant response rating,pigweed; [2],0
same,Redroot pigweed plant response rating,pigweed; [4],0
same,Redroot pigweed plant response rating,pigweed; [5],0
same,"Plant response rating, Redroot pigweed",pigweed; [6],0
same,"Plant response rating, Redroot pigweed",pigweed; [7],3
same,Redroot pigweed plant response rating,pigweed; [8],0
same,"Plant response rating, Rape",rape; [1],0
same,Rape plant response rating,rape; [2],0
same,Rape plant response rating,rape; [4],0
same,Rape plant response rating,rape; [5],0
same,"Plant response rating, Rape",rape; [6],0
same,"Plant response rating, Rape",rape; [7],0
same,Rape plant response rating,rape; [8],0
same,"Plant response rating, Soybean",soybean; [1],0
same,Soybean plant response rating,soybean; [2],0
same,Soybean plant response rating,soybean; [4],0
same,Soybean plant response rating,soybean; [5],0
same,"Plant response rating, Soybean",soybean; [6],0
same,"Plant response rating, Soybean",soybean; [7],0
same,Soybean plant response rating,soybean; [8],0
same,"Plant response rating, Sugarbeets",sugar beet; [1],0
same,Sugarbeets plant response rating,sugar beet; [2],0
same,Sugarbeets plant response rating,sugar beet; [4],0
same,Sugarbeets plant response rating,sugar beet; [5],0
same,"Plant response rating, Sugarbeets",sugar beet; [6],0
same,"Plant response rating, Sugarbeets",sugar beet; [7],0
same,Sugarbeets plant response rating,sugar beet; [8],0
same,"Plant response rating, Velvetleaf",velvetleaf; [1],0
same,Velvetleaf plant response rating,velvetleaf; [2],0
same,Velvetleaf plant response rating,velvetleaf; [4],0
same,Velvetleaf plant response rating,velvetleaf; [5],0
same,"Plant response rating, Velvetleaf",velvetleaf; [6],0
same,"Plant response rating, Velvetleaf",velvetleaf; [7],0
same,Velvetleaf plant response rating,velvetleaf; [8],0
same,"Plant response rating, Wheat",wheat; [1],0
same,Wheat plant response rating,wheat; [2],0
same,Wheat plant response rating,wheat; [4],0
same,Wheat plant response rating,wheat; [5],0
same,"Plant response rating, Wheat",wheat; [6],0
same,"Plant response rating, Wheat",wheat; [7],0
same,Wheat plant response rating,wheat; [8],0
same,"Plant response rating, Wild oats",wild oat; [1],0
same,Wild oats plant response rating,wild oat; [2],0
same,Wild oats plant response rating,wild oat; [4],0
same,Wild oats plant response rating,wild oat; [5],0
same,"Plant response rating, Wild oats",wild oat; [6],0
same,"Plant response rating, Wild oats",wild oat; [7],2
same,Wild oats plant response rating,wild oat; [8],0
same,"Plant response rating, Nutsedge",purple nutsedge; [1],0
same,Nutsedge plant response rating,purple nutsedge; [2],0
same,Nutsedge plant response rating,purple nutsedge; [4],0
same,"Plant response rating, Nutsedge",purple nutsedge; [7],0
same,Nutsedge plant response rating,purple nutsedge; [8],0
